Reference: patent US20230303623A1, “PEPTIDES AND METHODS OF USE” (REALTA LIFE SCIENCES, INC., priority 2020, published 2023)
Entries after “also recorded” stand apart in the source; their conditions may differ.

Legend:
[1] = biological target: T1, VEGF (Homo sapiens, UniProt P15692); test: VEGF binding ELISA plate-based assay; details: peptides 1 mg/ml
T1 construct: Promega (bioassay)
T1 sequence (P15692 27-191 isoform P15692-4): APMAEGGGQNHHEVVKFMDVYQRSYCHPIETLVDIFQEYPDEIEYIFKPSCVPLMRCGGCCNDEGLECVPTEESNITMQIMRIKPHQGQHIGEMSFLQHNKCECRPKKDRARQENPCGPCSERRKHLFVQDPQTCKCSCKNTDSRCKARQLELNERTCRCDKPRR
Experimental: A fixed amount of PIC1 peptides (1 mg/ml) were added to the plates followed by a rabbit polyclonal antibody that recognizes the peptides and then a secondary anti-rabbit antibody conjugated with HRP. The plate was then developed by addition of TMB as the substrate for the colorimetric assay.
(§1) Angiogenesis, or the formation of new blood vessels from the established vasculature, is an essential element in tumor growth and metastasis formation. Inhibiting tumor angiogenesis is considered a major therapeutic strategy in oncology. […] The bioluminescent signal is detected in a luminometer.

[2] = test system: antibody-initiated complement activation (lysis of AB human red blood cells by type O serum); test: ABO incompatibility hemolytic complement assay (CH50-type); format: cell-based; details: peptides 0.8 mg/ml (~0.5 mM), compared to parent peptide
Experimental: FIG. 1A-1B show PIC1 peptides' inhibition of complement activation in an ABO incompatibility assay. […] Inhibition of ABO incompatibility hemolysis in a CH50-type assay. Peptides are at a final concentration of 0.5 mM. Values are represented as a percent of the positive control, which consists of human 0 sera and AB red blood cells in GVBS^++ buffer. Data are the means of n=3 independent experiments±SEM.
For hemolytic complement assays, human red blood cells (RBCs) from type AB donors were purified, washed, and standardized to 1.0×10^9 cells/ml, as previously described. Human sera from type 0 donors at a 15% final concentration was combined with 0.5 mM of the peptides and the volume was brought up to 0.2 ml with GVBS^++ and 5.0×10^7 RBCs. The samples were incubated for 1 hour at 37° C. and then spun at 3,000 rpm for 5 minutes and the supernatant was collected and read at 412 nm. Values are represented as a percent of the positive control, which consists of human 0 sera and AB red blood cells in GVBS^++ buffer.
To assess the extent to which the peptide variants inhibit antibody-initiated complement activation, an ABO incompatibility ex vivo assay was utilized in which purified erythrocytes from a ‘type AB+’ donor are incubated with sera from a ‘type 0’ subject containing anti-A and anti-B antibodies. Peptides were tested at a concentration of 0.8 mg/ml (˜0.5 mM).

[3] = test system: classical complement pathway activation (C1q with C1r and C1s from A-498 cells); test: Classical complement activation by A-498 cell supernatant, C4a ELISA; format: biochemical, human; details: increasing doses 0-8 mg/ml; listed as RLS-0122
Experimental: Supernatants from A-498 cells were added to purified human C1q pre-incubated with increasing doses of RLS-0122 or RLS-0174 and loaded onto an IgG coated plate. Samples were then incubated for 1 hour at 37° C. After incubation samples were washed 3 times with PBS-T before the addition of purified human C4 (4 ug/ml) and incubated for 1.5 hours at 37° C. The supernatants were collected for analysis on Quidel's MicroVue Complement C4a ELISA.
Effective clear-cell renal cell carcinoma (ccRCC) therapies are needed, particularly at the metastatic stage when surgery is ineffective. Complement is a key factor in tissue inflammation, favoring cancer progression through the production of complement component 5a (C5a) (Roumenina et al., Cancer Immunol Res; 7(7) July 2019). Using data mining techniques, ccRCC has been identified as a cancer type expressing concomitantly high expression of the components that are part of the classical complement pathway. High densities of cells producing classical complement pathway components C1q and C4 and the presence of C4 activation fragment deposits in primary tumors are often correlated with poor prognosis. […] The inventors tested the ability of RLS-0122 to block complement activation in human kidney carcinoma cell line A498 system in vitro as assessed by the reduction in C4a levels. […]

[4] = biological target: T1, VEGF; test: VEGF Bioassay (Promega), VEGF signaling via VEGFR-2 (KDR); format: cell-based
Excerpt: Luminescence was detected in luminometer plate reader.
as §1

IAdLILEP(Sar)CCQERAA (IALILEPXCCQERAA; D-Leu; sarcosine; MOD_RES (3)..(3) D-amino acid; MOD_RES (8)..(8) Sarcosine) [PA-0122]
binding to VEGF, in words [1]: binding with high affinity
inhibition of ABO incompatible hemolysis (complement inhibition), in words [2]: greater extent
inhibition of ABO incompatible hemolysis (complement inhibition), in words ([2]; listed as RLS-0122): potently block complement activation
C4a generation, in words [3]: dose-dependently reduced the level of C4a generation; also recorded: can inhibit classical complement pathway activation
inhibition of VEGF signaling via VEGFR-2 (luminescence), in words [4]: did not inhibit signaling
